In patent US20250256096A1 (priority 2022, published 2025):
“And” between values parts separate entries of the source, which are not always exact repeats. Equal entries are not always repeated. Where two headings read alike, the source gives them in different places.

System: cervical vagus nerve
Format: in vivo, Adult male Lewis rats
Conditions: for vagal nerve activity as detected by spike count analysis of electroneurograms: application directly to the cervical vagus nerve; for vagal nerve activity as detected by spike count analysis of electroneurograms / nerve firing of the main cervical vagus nerve: result in words; for nerve firing of the main cervical vagus nerve: intradermal application to trigeminal dermatomes on the forehead
[1] = intradermal application on forehead near trigeminal nerve endings, high (100 nM) concentration, mean +/- SEM

| Compound | vagal nerve activity as detected by spike count analysis of electroneurograms | cervical vagus nerve average spike count (high (100 nM) concentration applied directly on the cervical vagus nerve, mean +/- SEM) | cervical vagus nerve average spike count [1] | nerve firing of the main cervical vagus nerve | cervical vagus nerve average spike count (low (10 nM) concentration applied directly on the cervical vagus nerve, mean +/- SEM, POST 60-s segment) | cervical vagus nerve average spike count (intradermal application on forehead near trigeminal nerve endings, low (10 nM) concentration, mean +/- SEM) | effect on spike count (low (10 nM) or high (100 nM) concentrations directly on the cervical vagus nerve, data not shown) | cervical vagus nerve average spike count (rat, in vivo) |
| --- | --- | --- | --- | --- | --- | --- | --- | --- |
| COc1cc(CNC(=O)CCCC/C=C/C(C)C)ccc1O [Capsaicin, capsaicin] | increased | 14.5+/−0.7 spikes/second | 13.5+/−0.5 spikes/second | activated | 7.6+/−0.7 spikes/second |  |  |  |
| CC(C)C[C@H](NC(=O)c1cc2ccccc2s1)C(=O)N1CCN(C(=O)[C@H](CO)NS(=O)(=O)c2ccc(Cl)cc2Cl)CC1 [GSK1016790A] | increased |  | 13.8+/−1.0 spikes/second | activated |  | 7.0+/−0.5 spikes/second | no effect |  |
| WS-12 | increased |  |  | activated |  |  |  |  |
| capsaicin |  |  |  |  |  |  |  | 11.2+/−0.6 spikes/second and 17.7+/−0.8 spikes/second and 9.6+/−0.5 spikes/second |
